In patent publication US9302999B2, “Substituted triazoles as herbicides” (E. I. DU PONT DE NEMOURS AND COMPANY, priority 2012, dated 2016):

Assays:
Format in all cases: in vivo
[1] = test system: barnyardgrass (Echinochloa crus-galli); test: Test B flooded paddy: barnyardgrass; conditions: Flood, applied to paddy water at 2-leaf stage, visually evaluated after 13 to 15 days
Summary of the method: (§1)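 Two-leaf-stage plants, pots flooded (3 cm above soil) and treated through the water, which stayed at that depth. After 13–15 days in greenhouse conditions, visual assessment versus controls: 0 is no effect, 100 complete control, dash means no result.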

[2] = test system: sedge, umbrella (small-flower umbrella sedge Cyperus difformis); test: Test B flooded paddy: sedge, umbrella; conditions: Flood, applied to paddy water at 2-leaf stage, visually evaluated after 13 to 15 days
Summary of the method: as §1

[3] = test system: ducksalad (Heteranthera limosa); test: Test B flooded paddy: ducksalad; conditions: Flood, applied to paddy water at 2-leaf stage, visually evaluated after 13 to 15 days
Summary of the method: as §1

[4] = test system: bermudagrass (Cynodon dactylon); test: Test C pre-/postemergence: bermudagrass
Summary of the method: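 Visual injury scored 0–100 (100 = complete control) against untreated controls after 13–15 greenhouse days. Surfactant-containing solvent formulations applied either to soil after sowing (loam/sand) or over 1- to 4-leaf plants, 2–18 cm tall.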

[5] = test system: foxtail, green (green foxtail, Setaria viridis); test: Test D pre-/postemergence: foxtail, green
Summary of the method: (§2)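 Applied as a non-phytotoxic solvent formulation with surfactant, compounds were tested preemergence in silt loam and postemergence on seedlings 2 to 18 cm high in peat-vermiculite medium. Evaluation was visual, 0 meaning no effect and 100 complete control, at 14 to 21 days.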

[6] = test system: lambsquarters (Chenopodium album); test: Test D pre-/postemergence: lambsquarters
Summary of the method: as §2

[7] = test system: wheat, spring (spring wheat, Triticum aestivum); test: Test D pre-/postemergence: wheat, spring
Text: Seeds of plant species selected from bluegrass (annual bluegrass, Poa annua), blackgrass (Alopecurus myosuroides), canarygrass (Phalaris minor), chickweed (common chickweed, Stellaria media), galium (catchweed bedstraw, Galium aparine), bromegrass, downy (downy bromegrass, Bromus tectorum), field poppy (Papaver rhoeas), field violet (Viola arvensis), foxtail, green (green foxtail, Setaria viridis), deadnettle (henbit deadnettle, Lamium amplexicaule), ryegrass, Italian (Italian ryegrass, Lolium multiflorum), kochia (Kochia scoparia), lambsquarters (Chenopodium album), oilseed rape (Brassica napus), pigweed (Amaranthus retroflexus), Russian thistle (Salsola iberica), chamomile (scentless chamomile, Matricaria inodora), speedwell (bird's-eye speedwell, Veronica persica), barley, spring (spring barley, Hordeum vulgare), wheat, spring (spring wheat, Triticum aestivum), buckwheat, wild (wild buckwheat, Polygonum convolvulus), mustard, wild (wild mustard, Sinapis arvensis), oat, wild (wild oat, Avena fatua), radish, wild (wild radish, Raphanus raphanistrum), windgrass (Apera spica-venti), barley, winter (winter barley, Hordeum vulgare), and wheat, winter (winter wheat, Triticum aestivum) were planted into a silt loam soil and treated preemergence with test chemicals formulated in a non-phytotoxic solvent mixture which included a surfactant. At the same time, these same crop and weed species were planted in pots containing the planting medium comprising spaghnum peat moss, vermiculite, wetting agent and starter nutrients and treated with postemergence applications of the test chemicals formulated in the same manner. Plants ranged in height from 2 to 18 cm (1- to 4-leaf stage).
Treated plants and controls were maintained in a controlled growth environment for 14 to 21 days after which time all species were compared to controls and visually evaluated. Plant response ratings, summarized in Table D, are based on a scale of 0 to 100 where 0 is no effect and 100 is complete control. A dash (-) response means no test result.

[8] = Postemergence, 31 g ai/ha, scale 0 to 100 (0 no effect, 100 complete control)
[9] = Postemergence, 62 g ai/ha, scale 0 to 100 (0 no effect, 100 complete control)
[10] = Postemergence, 125 g ai/ha, scale 0 to 100, 0 no effect, 100 complete control
[11] = Postemergence, 250 g ai/ha, scale 0 to 100 (0 no effect, 100 complete control)
[12] = Postemergence, 16 g ai/ha, scale 0 to 100
[13] = Preemergence, 16 g ai/ha, scale 0 to 100 (0 no effect, 100 complete control)
[14] = Preemergence, 31 g ai/ha, scale 0 to 100 (0 no effect, 100 complete control)
[15] = Preemergence, 62 g ai/ha, scale 0 to 100
[16] = Preemergence, 125 g ai/ha, scale 0 to 100

Structure (SMILES)	Plant response rating, Barnyardgrass (0 to 100 scale, 0 is no effect, 100 is complete control) ([1]; 250 g ai/ha)	Plant response rating, Sedge, Umbrella (0 to 100 scale, 0 is no effect, 100 is complete control) ([2]; 250 g ai/ha)	Plant response rating, Ducksalad (0 to 100 scale, 0 is no effect, 100 is complete control) ([3]; 250 g ai/ha)	Plant response rating: Foxtail, Green [5, 8]	Plant response rating: Foxtail, Green [5, 9]	Plant response rating: Foxtail, Green [5, 10]	Plant response rating, Foxtail, Green [5, 12]	Plant response rating: Lambsquarters [6, 8]	Plant response rating: Lambsquarters [6, 9]	Plant response rating: Lambsquarters [6, 10]	Plant response rating, Lambsquarters [6, 12]	Plant response rating: Wheat, Spring [7, 8]	Plant response rating: Wheat, Spring [7, 9]	Plant response rating: Wheat, Spring [7, 10]	Plant response rating, Wheat, Spring [7, 12]	further results
Cc1nn(-c2ccc(C(F)(F)F)c(F)c2)nc1Cc1ccnc(C(F)(F)F)c1 [Compound 162]	–	–	–	–	–	–	–	–	–	–	–	–	–	–	–	Plant response rating, Barnyardgrass (0 to 100 scale, 0 is no effect, 100 is complete control) ([1]; 125 g ai/ha): 70; Plant response rating, Sedge, Umbrella (0 to 100 scale, 0 is no effect, 100 is complete control) ([2]; 125 g ai/ha): 80; Plant response rating, Ducksalad (0 to 100 scale, 0 is no effect, 100 is complete control) ([3]; 125 g ai/ha): 0
CCCc1nn(-c2ccc(C(F)(F)F)c(F)c2)nc1Oc1ccnc(C(F)(F)F)c1 [Compound 185]	90	95	65	–	–	–	–	–	–	–	–	–	–	–	–	–
Cc1nn(-c2ccnc(C(F)(F)F)c2)nc1Cc1ccnc(C(F)(F)F)c1 [Compound 137]	45	70	50	50	70	80	40	75	80	95	40	5	10	20	0	Plant response rating, Bermudagrass [4, 8]: 30; Plant response rating, Bermudagrass [4, 9]: 30; Plant response rating, Bermudagrass ([4]; Postemergence, 250 g ai/ha, scale 0 to 100): 45; Plant response rating: Foxtail, Green [5, 11]: 95; Plant response rating: Lambsquarters [6, 11]: 95; Plant response rating: Wheat, Spring [7, 11]: 25
Cc1nn(-c2ccc(F)c(C(F)(F)F)c2)nc1Oc1ccnc(C(F)(F)F)c1 [Compound 147]	55	80	40	15	25	60	15	75	90	95	75	15	20	25	10	Plant response rating, Bermudagrass ([4]; Preemergence, 31 g ai/ha, scale of 0 to 100, 0 is no effect, 100 is complete control): 100; Plant response rating, Bermudagrass ([4]; Preemergence, 62 g ai/ha, scale of 0 to 100, 0 is no effect, 100 is complete control): 100; Plant response rating, Bermudagrass ([4]; Preemergence, 125 g ai/ha, scale 0 to 100, 0 no effect, 100 complete control): 100; Plant response rating, Bermudagrass ([4]; Preemergence, 250 g ai/ha, scale 0 to 100, 0 no effect, 100 complete control): 100; Plant response rating, Foxtail, Green [5, 13]: 10; Plant response rating, Foxtail, Green [5, 14]: 25; Plant response rating, Foxtail, Green [5, 15]: 75; Plant response rating, Foxtail, Green [5, 16]: 100; Plant response rating, Lambsquarters [6, 13]: 5; Plant response rating, Lambsquarters [6, 14]: 50; Plant response rating, Lambsquarters [6, 15]: 80; Plant response rating, Lambsquarters [6, 16]: 85; Plant response rating, Wheat, Spring [7, 13]: 0; Plant response rating, Wheat, Spring [7, 14]: 0; Plant response rating, Wheat, Spring [7, 15]: 0; Plant response rating, Wheat, Spring [7, 16]: 5
